# Data as given in the OligoGym collection.
# “And” between values parts separate entries of the source, which are not always exact repeats. Identical values can stand only once. HELM strings list units from the 5' end as sugar, base in round brackets, then linkage (d deoxyribose, r ribose, m 2'-O-methyl, p phosphodiester). Methylation of C is not given here. [moe] = 2'-O-(2-methoxyethyl) (MOE); [cEt] = constrained ethyl (cEt); [sp] = phosphorothioate linkage
# Biological target: HBV
# Details: ASO, HepG2, 0.0092593 µM
row,Substance,target mRNA inhibition [%]
1,RNA1{[moe](G)[sp].[moe](C)[sp].[moe](A)[sp].d(G)[sp].d(T)[sp].d(A)[sp].d(T)[sp].d(G)[sp].d(G)[sp].d(A)[sp].d(T)[sp].d(C)[sp].d(G)[sp].[cEt](G)[sp].[cEt](C)[sp].[cEt](A)}$$$$V2.0,4

# Same assay, conditions: ASO, HepG2, 0.0277778 µM
row,Substance,target mRNA inhibition [%]
1,RNA1{[moe](G)[sp].[moe](C)[sp].[moe](A)[sp].d(G)[sp].d(T)[sp].d(A)[sp].d(T)[sp].d(G)[sp].d(G)[sp].d(A)[sp].d(T)[sp].d(C)[sp].d(G)[sp].[cEt](G)[sp].[cEt](C)[sp].[cEt](A)}$$$$V2.0,36

# Same assay, conditions: ASO, HepG2, 0.07 µM
row,Substance,target mRNA inhibition
1,RNA1{[moe](G)[sp].[moe](A)[sp].d(G)[sp].d(G)[sp].d(C)[sp].d(A)[sp].d(T)[sp].d(A)[sp].d(G)[sp].d(C)[sp].d(A)[sp].[moe](G)[sp].[moe](C)[sp].[moe](A)[sp].[moe](G)[sp].[moe](G)[sp].[moe](A)}$$$$V2.0,64% and 47%
2,RNA1{[moe](A)[sp].[moe](C)[sp].[moe](T)[sp].[moe](A)[sp].d(G)[sp].d(T)[sp].d(A)[sp].d(A)[sp].d(A)[sp].d(C)[sp].d(T)[sp].d(G)[sp].d(A)[sp].[moe](G)[sp].[moe](C)[sp].[moe](C)[sp].[moe](A)}$$$$V2.0,62% and 58%
3,RNA1{[moe](C)[sp].[moe](G)[sp].[moe](C)[sp].d(A)[sp].d(G)[sp].d(T)[sp].d(A)[sp].d(T)[sp].d(G)[sp].d(G)[sp].d(A)[sp].d(T)[sp].[moe](C)[sp].[moe](G)[sp].[moe](G)[sp].[moe](C)}$$$$V2.0,84% and 68%
4,RNA1{[moe](T)[sp].[cEt](G)[sp].[cEt](A)[sp].d(G)[sp].d(A)[sp].d(G)[sp].d(A)[sp].d(A)[sp].d(G)[sp].d(T)[sp].d(C)[sp].d(C)[sp].d(A)[sp].[cEt](C)[sp].[cEt](C)[sp].[moe](A)}$$$$V2.0,53% and 49%
5,RNA1{[moe](C)[sp].[moe](T)[sp].[moe](G)[sp].d(G)[sp].d(A)[sp].d(G)[sp].d(C)[sp].d(C)[sp].d(A)[sp].d(C)[sp].d(C)[sp].d(A)[sp].d(G)[sp].[cEt](C)[sp].[cEt](A)[sp].[cEt](G)}$$$$V2.0,60%
6,RNA1{[moe](G)[sp].[moe](A)[sp].d(G)[sp].d(A)[sp].d(A)[sp].d(G)[sp].d(T)[sp].d(C)[sp].d(C)[sp].d(A)[sp].d(C)[sp].[moe](C)[sp].[moe](A)[sp].[moe](C)[sp].[moe](G)[sp].[moe](A)[sp].[moe](G)}$$$$V2.0,35% and 21%
7,RNA1{[moe](G)[sp].[cEt](A)[sp].d(A)[sp].d(G)[sp].d(C)[sp].d(G)[sp].d(A)[sp].d(A)[sp].d(G)[sp].d(T)[sp].d(G)[sp].d(C)[sp].[cEt](A)[sp].[moe](C)[sp].[cEt](A)[sp].[moe](C)}$$$$V2.0,74% and 76%
8,RNA1{[moe](G)[sp].[moe](A)[sp].[moe](A)[sp].d(C)[sp].d(T)[sp].d(G)[sp].d(G)[sp].d(A)[sp].d(G)[sp].d(C)[sp].d(C)[sp].d(A)[sp].[moe](C)[sp].[moe](C)[sp].[moe](A)[sp].[moe](G)[sp].[moe](C)}$$$$V2.0,65% and 51%
9,RNA1{[moe](G)[sp].[moe](C)[sp].[moe](A)[sp].d(G)[sp].d(T)[sp].d(A)[sp].d(T)[sp].d(G)[sp].d(G)[sp].d(A)[sp].d(T)[sp].d(C)[sp].d(G)[sp].[cEt](G)[sp].[cEt](C)[sp].[cEt](A)}$$$$V2.0,74% and 85%
10,RNA1{[moe](A)[sp].[moe](G)[sp].[moe](G)[sp].[moe](C)[sp].d(A)[sp].d(T)[sp].d(A)[sp].d(G)[sp].d(C)[sp].d(A)[sp].d(G)[sp].d(C)[sp].d(A)[sp].[moe](G)[sp].[moe](G)[sp].[moe](A)}$$$$V2.0,52% and 36%
11,RNA1{[moe](A)[sp].[cEt](C)[sp].[cEt](C)[sp].d(A)[sp].d(C)[sp].d(A)[sp].d(T)[sp].d(C)[sp].d(A)[sp].d(T)[sp].d(C)[sp].d(C)[sp].d(A)[sp].[cEt](T)[sp].[cEt](A)[sp].[moe](T)}$$$$V2.0,35% and 54%
12,RNA1{[moe](A)[sp].[moe](C)[sp].d(G)[sp].d(G)[sp].d(G)[sp].d(C)[sp].d(A)[sp].d(A)[sp].d(C)[sp].d(A)[sp].d(T)[sp].[moe](A)[sp].[moe](C)[sp].[moe](C)[sp].[moe](T)[sp].[moe](T)}$$$$V2.0,61% and 42%
13,RNA1{[moe](A)[sp].[moe](C)[sp].[moe](G)[sp].[moe](T)[sp].d(G)[sp].d(C)[sp].d(A)[sp].d(G)[sp].d(A)[sp].d(G)[sp].d(G)[sp].d(T)[sp].d(G)[sp].[moe](A)[sp].[moe](A)[sp].[moe](G)}$$$$V2.0,53% and 45%
14,RNA1{[moe](G)[sp].[moe](A)[sp].d(A)[sp].d(C)[sp].d(T)[sp].d(G)[sp].d(G)[sp].d(A)[sp].d(G)[sp].d(C)[sp].d(C)[sp].[moe](A)[sp].[moe](C)[sp].[moe](C)[sp].[moe](A)[sp].[moe](G)[sp].[moe](C)}$$$$V2.0,70% and 69%
15,RNA1{[moe](G)[sp].[cEt](A)[sp].d(G)[sp].d(A)[sp].d(A)[sp].d(G)[sp].d(T)[sp].d(C)[sp].d(C)[sp].d(A)[sp].d(C)[sp].d(C)[sp].[cEt](A)[sp].[moe](C)[sp].[cEt](G)[sp].[moe](A)}$$$$V2.0,34% and 43%
16,RNA1{[moe](G)[sp].[moe](T)[sp].[moe](T)[sp].[moe](C)[sp].[moe](C)[sp].d(G)[sp].d(C)[sp].d(A)[sp].d(G)[sp].d(T)[sp].d(A)[sp].d(T)[sp].d(G)[sp].d(G)[sp].[moe](A)[sp].[moe](T)}$$$$V2.0,54% and 51%

row,Substance,target mRNA inhibition
1,RNA1{[moe](C)[sp].[moe](C)[sp].[moe](G)[sp].d(C)[sp].d(A)[sp].d(G)[sp].d(T)[sp].d(A)[sp].d(T)[sp].d(G)[sp].d(G)[sp].d(A)[sp].d(T)[sp].[cEt](C)[sp].[cEt](G)[sp].[cEt](G)}$$$$V2.0,72% and 79%
2,RNA1{[moe](G)[sp].[moe](T)[sp].[moe](G)[sp].[moe](C)[sp].[moe](A)[sp].d(G)[sp].d(A)[sp].d(G)[sp].d(G)[sp].d(T)[sp].d(G)[sp].d(A)[sp].d(A)[sp].d(G)[sp].[moe](C)[sp].[moe](G)}$$$$V2.0,57% and 51%
3,RNA1{[moe](T)[sp].[moe](T)[sp].[moe](C)[sp].d(C)[sp].d(G)[sp].d(C)[sp].d(A)[sp].d(G)[sp].d(T)[sp].d(A)[sp].d(T)[sp].d(G)[sp].[moe](G)[sp].[moe](A)[sp].[moe](T)[sp].[moe](C)}$$$$V2.0,53% and 50%
4,RNA1{[moe](A)[sp].[moe](G)[sp].[moe](A)[sp].[moe](G)[sp].d(A)[sp].d(A)[sp].d(G)[sp].d(T)[sp].d(C)[sp].d(C)[sp].d(A)[sp].d(C)[sp].d(C)[sp].[moe](A)[sp].[moe](C)[sp].[moe](G)[sp].[moe](A)}$$$$V2.0,17%
5,RNA1{[moe](T)[sp].[moe](C)[sp].[moe](C)[sp].d(G)[sp].d(C)[sp].d(A)[sp].d(G)[sp].d(T)[sp].d(A)[sp].d(T)[sp].d(G)[sp].d(G)[sp].[moe](A)[sp].[moe](T)[sp].[moe](C)[sp].[moe](G)}$$$$V2.0,65% and 72%
6,RNA1{[moe](A)[sp].[cEt](A)[sp].[cEt](G)[sp].d(T)[sp].d(C)[sp].d(C)[sp].d(A)[sp].d(C)[sp].d(C)[sp].d(A)[sp].d(C)[sp].d(G)[sp].d(A)[sp].[cEt](G)[sp].[cEt](T)[sp].[moe](C)}$$$$V2.0,59% and 46%
7,RNA1{[moe](C)[sp].[moe](T)[sp].d(G)[sp].d(G)[sp].d(A)[sp].d(G)[sp].d(C)[sp].d(C)[sp].d(A)[sp].d(C)[sp].d(C)[sp].[moe](A)[sp].[moe](G)[sp].[moe](C)[sp].[moe](A)[sp].[moe](G)[sp].[moe](G)}$$$$V2.0,66% and 64%
8,RNA1{[moe](T)[sp].[moe](T)[sp].[moe](A)[sp].[moe](T)[sp].[moe](G)[sp].d(C)[sp].d(C)[sp].d(T)[sp].d(A)[sp].d(C)[sp].d(A)[sp].d(G)[sp].d(C)[sp].d(C)[sp].[moe](T)[sp].[moe](C)}$$$$V2.0,53% and 42%
9,RNA1{[moe](A)[sp].[moe](G)[sp].d(T)[sp].d(T)[sp].d(C)[sp].d(C)[sp].d(G)[sp].d(C)[sp].d(A)[sp].d(G)[sp].d(T)[sp].[moe](A)[sp].[moe](T)[sp].[moe](G)[sp].[moe](G)[sp].[moe](A)}$$$$V2.0,63% and 64%
10,RNA1{[moe](T)[sp].[moe](T)[sp].[moe](C)[sp].d(C)[sp].d(G)[sp].d(C)[sp].d(A)[sp].d(G)[sp].d(T)[sp].d(A)[sp].d(T)[sp].d(G)[sp].d(G)[sp].[cEt](A)[sp].[cEt](T)[sp].[cEt](C)}$$$$V2.0,60% and 68%
11,RNA1{[moe](G)[sp].[cEt](A)[sp].[cEt](A)[sp].d(G)[sp].d(A)[sp].d(T)[sp].d(G)[sp].d(A)[sp].d(G)[sp].d(G)[sp].d(C)[sp].d(A)[sp].d(T)[sp].[cEt](A)[sp].[cEt](G)[sp].[moe](C)}$$$$V2.0,69% and 66%
12,RNA1{[moe](T)[sp].[cEt](G)[sp].[cEt](A)[sp].d(A)[sp].d(C)[sp].d(A)[sp].d(A)[sp].d(A)[sp].d(T)[sp].d(G)[sp].d(G)[sp].d(C)[sp].d(A)[sp].[cEt](C)[sp].[cEt](T)[sp].[moe](A)}$$$$V2.0,71% and 59%
13,RNA1{[moe](G)[sp].[moe](A)[sp].[moe](A)[sp].[moe](G)[sp].d(C)[sp].d(G)[sp].d(A)[sp].d(A)[sp].d(G)[sp].d(T)[sp].d(G)[sp].d(C)[sp].d(A)[sp].[moe](C)[sp].[moe](A)[sp].[moe](C)[sp].[moe](G)}$$$$V2.0,65% and 57%
14,RNA1{[moe](G)[sp].[moe](T)[sp].[moe](G)[sp].d(C)[sp].d(A)[sp].d(G)[sp].d(A)[sp].d(G)[sp].d(G)[sp].d(T)[sp].d(G)[sp].d(A)[sp].[moe](A)[sp].[moe](G)[sp].[moe](C)[sp].[moe](G)[sp].[moe](A)}$$$$V2.0,67% and 62%
15,RNA1{[moe](G)[sp].[moe](A)[sp].d(T)[sp].d(G)[sp].d(A)[sp].d(G)[sp].d(G)[sp].d(C)[sp].d(A)[sp].d(T)[sp].d(A)[sp].[moe](G)[sp].[moe](C)[sp].[moe](A)[sp].[moe](G)[sp].[moe](C)}$$$$V2.0,57% and 33%
16,RNA1{[moe](G)[sp].[moe](A)[sp].[moe](T)[sp].[moe](G)[sp].[moe](A)[sp].[moe](G)[sp].d(G)[sp].d(C)[sp].d(A)[sp].d(T)[sp].d(A)[sp].d(G)[sp].d(C)[sp].d(A)[sp].d(G)[sp].[moe](C)[sp].[moe](A)}$$$$V2.0,63% and 44%

# Same assay, conditions: ASO, HepG2, 0.0833333 µM
row,Substance,target mRNA inhibition [%]
1,RNA1{[moe](G)[sp].[moe](C)[sp].[moe](A)[sp].d(G)[sp].d(T)[sp].d(A)[sp].d(T)[sp].d(G)[sp].d(G)[sp].d(A)[sp].d(T)[sp].d(C)[sp].d(G)[sp].[cEt](G)[sp].[cEt](C)[sp].[cEt](A)}$$$$V2.0,58

# Same assay, conditions: ASO, HepG2, 0.25 µM
row,Substance,target mRNA inhibition [%]
1,RNA1{[moe](G)[sp].[moe](C)[sp].[moe](A)[sp].d(G)[sp].d(T)[sp].d(A)[sp].d(T)[sp].d(G)[sp].d(G)[sp].d(A)[sp].d(T)[sp].d(C)[sp].d(G)[sp].[cEt](G)[sp].[cEt](C)[sp].[cEt](A)}$$$$V2.0,84
